From US20230146939A1, “TREATMENT FOR HUMAN CORONAVIRUS INFECTION” (THE ADMINISTRATORS OF THE TULANE EDUCATIONAL FUND, priority 2020, published 2023)

Tests used:
[1] = in vivo; cited from earlier work
[2] = test system: lung tissue; conditions: saline/ATN-161, no SARS-CoV-2
[3] = cancer patients; cited from earlier work
[4] = test system: SARS-CoV-2; conditions: 1 h

Substance | tissue distribution [1] | H&E histopathological changes in uninfected mice [2] | Masson's trichrome histopathological changes in uninfected mice [2] | safety in human clinical trials [3] | IC50 [4] [µM]
Ac-PHSCN-NH2 [ATN-161, Ac-PHSCN-NH2] [listing 1 of 2 here] | high tissue distribution | no histopathological changes in any of the mice | no histopathological changes in any of the mice | no dose limiting toxicity | 
Ac-PHSCN-NH2 [ATN-161, Ac-PHSCN-NH2] [listing 2 of 2 here] |  |  |  |  | 3.16
